The values below come from patent US20250222169A1, “PHOTOINTIATOR, BIOINK INCLUDING THE SAME, AND METHODE OF MANUFACTURING HYDROGEL” (PUSAN NATIONAL UNIVERSITY INDUSTRY-UNIVERSITY COOPERATION …, priority 2024, published 2025).

Data set [1] in a line: Molar extinction coefficient by UV-visible absorption spectra in distilled water. Type of data set: physicochemical. The following applies: at about 405 nm, 10 mm quartz cuvettes. The source says:
FIG. 5 is a graph of a molar extinction coefficient (ε)-wavelength of Examples according to the present disclosure.

For data set [2] the following is noted: in water at about 25° C.
Data set [3] deals with Murine NIH-3T3 fibroblasts. As to the kind of experiment: Cytotoxicity of the photoinitiator (cell viability of fibroblasts). The format is cell-based. The following applies: concentration of about 0.2% (w/v), about 24 hours. As to the method:
Murine NIH-3T3 fibroblasts purchased from ATCC (Manassas, VA, USA) were cultured in a cell culture dish in a size of about 100 mm along with DMEM supplemented with about 10% FBS and penicillin-streptomycin (about 100 UI/ml). The cultured cells were kept at about 37° C. in a sterile culture machine (Labogene, Seoul, Korea) containing about 5% CO2 until reaching the confluence.
To conduct cell viability analysis, fibroblasts were seeded into 24-well-plates (2×10^4 cells/well) and cultured in a sterile culture machine at about 37° C. for about 12 hours, and then the media were removed.
In particular, by substituting with highly biocompatible Mg^2+ ions, it was identified that there was a remarkable effect on reduction in the cytotoxicity.

Consider `Cc1cc(C)c(C(=O)P(=O)([O-])c2ccccc2)c(C)c1.[Li+]` [LAP, Lithium phenyl-2,4,6-trimethylbenzoylphosphination], for which the molar extinction coefficient result in data set [1] was “about 29 M^−1·cm^−1”. Also, the maximum solubility entry in data set [2] is “about 159.7 mM”. The cell viability entry in data set [3] is reported as “about 46%”.
